Target: T1, gastrin (CCK2) receptors (Rattus norvegicus, UniProt P30553)
T1 construct: The stomach was excised and flushed with ca. 1 ml of unbuffered physiological saline solution; from tissue; host or cells: isolated whole stomach of immature rats (ca. 21 days old)
T1 sequence (P30553 1-452): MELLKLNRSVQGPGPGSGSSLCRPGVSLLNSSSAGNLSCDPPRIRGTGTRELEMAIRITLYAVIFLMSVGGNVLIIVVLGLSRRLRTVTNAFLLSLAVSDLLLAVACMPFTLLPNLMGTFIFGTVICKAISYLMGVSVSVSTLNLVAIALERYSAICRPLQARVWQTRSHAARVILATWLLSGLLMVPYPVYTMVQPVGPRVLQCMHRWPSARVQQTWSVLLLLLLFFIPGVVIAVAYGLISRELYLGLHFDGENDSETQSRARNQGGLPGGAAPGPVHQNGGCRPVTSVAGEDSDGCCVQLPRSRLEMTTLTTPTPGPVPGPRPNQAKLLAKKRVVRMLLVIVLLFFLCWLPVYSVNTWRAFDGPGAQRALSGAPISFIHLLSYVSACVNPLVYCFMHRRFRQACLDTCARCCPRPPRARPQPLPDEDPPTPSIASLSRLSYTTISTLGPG
Experiment: gastrin (CCK2) antagonist activity in an immature rat stomach assay
Details: pentagastrin dose-response curves, acid secretion, read-out: pKB rat stomach (converted)
Outline: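 Pentagastrin dose-response curves were run cumulatively 60 min after drug went into the serosal bath, itself after 120 min stabilisation. Preparation: perfused stomach from rats ca. 21 days old (33-50 g), with unbuffered saline under 100% O2 at 1 ml min^−1 and perfusate pH monitored.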

| Structure (SMILES) | Kb [nM] |
| --- | --- |
| COC(=O)c1coc(-c2cccc(NC(=O)CN3N=C(C4CCCCC4)c4ccccc4N(CC(=O)C(C)(C)C)C3=O)c2)n1 [Example 140, 2-(3-{2-[5-Cyclohexyl-1-(3,3-dimethyl-2-oxo-butyl)-2-oxo-1,2-dihydro-3H-1,3,4-benzotriazepin-3-yl]-acetylamino}-phenyl)-oxazole-4-carboxylic acid methyl ester] | 1.12 |
| CC(C)(C)C(=O)CN1C(=O)N(CC(=O)Nc2cccc3c2ccn3CC(=O)O)N=C(C2CCCCC2)c2ccccc21 [Example 127, (4-{2-[5-Cyclohexyl-1-(3,3-dimethyl-2-oxo-butyl)-2-oxo-1,2-dihydro-3H-1,3,4-benzotriazepin-3-yl]-acetylamino}-indol-1-yl)-acetic acid] | 2.09 |
| CC(C)(C)C(=O)CN1C(=O)N(CC(=O)Nc2cccc(CCC(=O)O)c2)N=C(C2CCCCC2)c2ccccc21 [Example 61, 3-(3-{2-[5-Cyclohexyl-1-(3,3-dimethyl-2-oxo-butyl)-2-oxo-1,2-dihydro-3H-1,3,4-benzotriazepin-3-yl]-acetylamino}-phenyl)-propionic acid] | 4.47 |
| CC1(C(=O)CN2C(=O)N(CC(=O)Nc3cccc(-c4nc(=O)o[nH]4)c3)N=C(C3CCCCC3)c3ccccc32)CCCC1 [Example 87] | 3.16 |
| O=C(O)Cn1ccc2ccc(NC(=O)CN3N=C(C4CCCCC4)c4ccccc4N(CC(=O)C4CCCC4)C3=O)cc21 [Example 126, (6-{2-[5-Cyclohexyl-1-(2-cyclopentyl-2-oxo-ethyl)-2-oxo-1,2-dihydro-3H-1,3,4-benzotriazepin-3-yl]-acetylamino}-indol-1-yl)-acetic acid] | 0.0575 |
| CNc1cc(NC(=O)CN2N=C(C3CCCCC3)c3ccccc3N(CC(=O)C(C)(C)C)C2=O)cc(C(=O)O)c1 [Example 73, 3-{2-[5-Cyclohexyl-1-(3,3-dimethyl-2-oxo-butyl)-2-oxo-1,2-dihydro-3H-1,3,4-benzotriazepin-3-yl]-acetylamino}-5-methylamino-benzoic acid] | 67.6 |
| CC(C)(C)C(=O)CN1C(=O)N(CC(=O)Nc2cccc(/C=C3\SC(=O)NC3=O)c2)N=C(C2CCCCC2)c2ccccc21 [Example 147, 2-[5-Cyclohexyl-1-(3,3-dimethyl-2-oxo-butyl)-2-oxo-1,2-dihydro-3H-1,3,4-benzotriazepin-3-yl]-N-[3-(2,4-dioxo-thiazolidin-5-ylidenemethyl)-phenyl]-acetamide] | 8.32 |
| CNc1cccc(NC(=O)CN2N=C(c3ccccn3)c3ccccc3N(CC(=O)C(C)(C)C)C2=O)c1 [Example 5, 2-[1-(3,3-Dimethyl-2-oxo-butyl)-2-oxo-5-pyridin-2-yl-1,2-dihydro-3H-1,3,4-benzotriazepin-3-yl]-N-(3-methylamino-phenyl)-acetamide] | 240 |
| CC1(C(=O)CN2C(=O)N(CC(=O)Nc3cccc(CC(=O)O)c3)N=C(C3CCCCC3)c3ccccc32)CCCCC1 [Example 133, [3-(2-{5-Cyclohexyl-1-[2-(1-methyl-cyclohexyl)-2-oxo-ethyl]-2-oxo-1,2-dihydro-3H-1,3,4-benzotriazepin-3-yl}-acetylamino)-phenyl]-acetic acid] | 14.1 |
| CC(C)(C)C(=O)CN1C(=O)N(CC(=O)Nc2cccc(-c3nn[nH]n3)c2)N=C(C2CCCCC2)c2ccccc21 [Example 23, 2-[5-Cyclohexyl-1-(3,3-dimethyl-2-oxo-butyl)-2-oxo-1,2-dihydro-3H-1,3,4-benzotriazepin-3-yl]-N-[3-(2H-tetrazol-5-yl)-phenyl]-acetamide] | 11.2 |
| CC(C)(C)C(=O)CN1C(=O)N(CC(=O)Nc2cccc(NCC(=O)O)c2)N=C(C2CCCCC2)c2ccccc21 [Example 52] | 32.4 |
| O=C(CN1N=C(C2CCCCC2)c2ccccc2N(CC(=O)N2CCOCC2)C1=O)Nc1cccc(C(=O)O)c1 [Example 68, 3-{2-[5-Cyclohexyl-1-(2-morpholin-4-yl-2-oxo-ethyl)-2-oxo-1,2-dihydro-3H-1,3,4-benzotriazepin-3-yl]-acetylamino}-benzoic acid] | 81.3 |
| COc1ccc(NC(=O)CN2N=C(C3CCCCC3)c3ccccc3N(CC(=O)C(C)(C)C)C2=O)cc1 [Example 32, 2-[5-Cyclohexyl-1-(3,3-dimethyl-2-oxo-butyl)-2-oxo-1,2-dihydro-3H-1,3,4-benzotriazepin-3-yl]-N-(4-methoxy-phenyl)-acetamide] | 77.6 |
| CC(C)(C)C(=O)CN1C(=O)N(CC(=O)Nc2cccc3nn(CC(=O)O)cc23)N=C(C2CCCCC2)c2ccccc21 [Example 142, (4-{2-[5-Cyclohexyl-1-(3,3-dimethyl-2-oxo-butyl)-2-oxo-1,2-dihydro-3H-1,3,4-benzotriazepin-3-yl]-acetylamino}-indazol-2-yl)-acetic acid] | 15.5 |
| CC(C)(C)C(=O)CN1C(=O)N(CC(=O)Nc2cccc(CSC(=N)N)c2)N=C(C2CCCCC2)c2ccccc21 [Example 49, N-(3-Carbamimidoylsulfanylmethyl-phenyl)-2-[5-cyclohexyl-1-(3,3-dimethyl-2-oxo-butyl)-2-oxo-1,2-dihydro-3H-1,3,4-benzotriazepin-3-yl]-acetamide] | 100 |
| O=C(CN1N=C(C2CCCCC2)c2ccccc2N(CC(=O)C2CCCC2)C1=O)Nc1cccc(-c2nc(C(=O)O)co2)c1 [Example 148, 2-(3-{2-[5-Cyclohexyl-1-(2-cyclopentyl-2-oxo-ethyl)-2-oxo-1,2-dihydro-3H-1,3,4-benzotriazepin-3-yl]-acetylamino}-phenyl)-oxazole-4-carboxylic acid] | 3.89 |
| O=C(O)Cc1cccc(NC(=O)CN2N=C(c3ccccn3)c3ccccc3N(CC(=O)C3CCCC3)C2=O)c1 [Example 81] | 72.4 |
| Cc1ccc2c(c1)N(CC(=O)C(C)(C)C)C(=O)N(CC(=O)Nc1cccc(C(=O)O)c1)N=C2C1CCCCC1 [Example 112, 3-{2-[5-Cyclohexyl-1-(3,3-dimethyl-2-oxo-butyl)-8-methyl-2-oxo-1,2-dihydro-3H-1,3,4-benzotriazepin-3-yl]-acetylamino}-benzoic acid] | 40.7 |
| CC(C)(C)C(=O)CN1C(=O)N(CC(=O)Nc2cccc(C(=O)O)c2)N=C(C2CCCCC2)c2ccccc21 [Example 2, 3-{2-[5-Cyclohexyl-1-(3,3-dimethyl-2-oxo-butyl)-2-oxo-1,2-dihydro-3H-1,3,4-benzotriazepin-3-yl]-acetylamino}-benzoic acid] | 0.661 |
